From patent US20150174021A1, “COSMETIC COMPOSITION COMPRISING BENZYLSULFONYL-D-SER-HOMOPHE-(4-AMIDINO-BENZYLAMIDE) AND A POLYALCOHOL” (DSM IP ASSETS B.V., priority 2012, published 2015)
Read-outs that look alike come from different tables or passages of the source.

Key:
[1] = target: human plasmin (Homo sapiens, UniProt P00747); experiment: Inhibition of human plasmin, chromogenic substrate Tos-Gly-Pro-Lys-pNA, Ki according to Dixon; type: biochemical
Experimental: The measurements were carried out on a microplate reader at 25′C.
(§1) The measurements were carried out on a microplate reader at 25° C. […] The Ki-values for the respective inhibitors were calculated according to Dixon34 using a linear regression proaram. Bz-βAla-Gly-Arg-pNA was used as the substrate for human uPA and Tos-Gly-Pro-Lys-pNA for human plasmin.

[2] = target: human uPA (Homo sapiens, UniProt P00749); experiment: Inhibition of human uPA (urokinase), chromogenic substrate Bz-βAla-Gly-Arg-pNA, Ki according to Dixon; type: biochemical
Experimental: The measurements were carried out on a microplate reader at 25° C.
as §1

[3] = comparative inhibitor compositions, 0.1% inhibitor and 99.9% of glycerine 86%, 25° C., pH 8.0, Dixon, read-out: Ki for plasmin inhibition

human plasmin, sequence (P00747 581-810 limits assumed): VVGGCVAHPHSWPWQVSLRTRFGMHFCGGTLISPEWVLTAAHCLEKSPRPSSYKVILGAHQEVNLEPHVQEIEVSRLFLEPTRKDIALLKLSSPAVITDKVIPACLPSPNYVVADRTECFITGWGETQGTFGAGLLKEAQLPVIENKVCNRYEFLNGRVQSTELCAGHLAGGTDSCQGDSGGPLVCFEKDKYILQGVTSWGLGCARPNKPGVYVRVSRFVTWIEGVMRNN
human plasmin, sequence (P00747 97-580 partner limits assumed): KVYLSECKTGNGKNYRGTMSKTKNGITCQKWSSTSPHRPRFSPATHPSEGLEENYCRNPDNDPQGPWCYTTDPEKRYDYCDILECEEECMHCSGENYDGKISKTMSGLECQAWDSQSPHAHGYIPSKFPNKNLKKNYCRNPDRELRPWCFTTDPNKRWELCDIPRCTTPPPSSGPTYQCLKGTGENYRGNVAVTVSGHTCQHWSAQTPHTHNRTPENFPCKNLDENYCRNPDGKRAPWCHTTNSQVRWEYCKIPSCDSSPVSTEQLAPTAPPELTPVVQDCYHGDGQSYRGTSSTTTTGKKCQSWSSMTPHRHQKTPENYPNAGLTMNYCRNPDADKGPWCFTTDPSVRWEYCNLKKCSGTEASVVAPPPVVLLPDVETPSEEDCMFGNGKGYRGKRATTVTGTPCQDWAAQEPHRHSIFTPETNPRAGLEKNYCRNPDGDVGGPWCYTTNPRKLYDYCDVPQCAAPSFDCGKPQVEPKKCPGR

CC(NC(=O)C(CO)NS(=O)(=O)Cc1ccccc1)C(=O)NCc1ccc(C(=N)N)cc1 [Benzylsulfonyl-D-Ser-Ala-(4-amidino-benzylamide)]
Ki [1, 3]: 540 nM

N=C(N)c1ccc(CNC(=O)CNC(=O)[C@@H](CO)NS(=O)(=O)Cc2ccccc2)cc1 [Benzylsulfonyl-D-Ser-Gly-(4-amidino-benzylamide)]
Ki [1, 3]: 11000 nM

N=C(N)c1ccc(CNC(=O)C(CCCCN)NC(=O)C(CO)NS(=O)(=O)Cc2ccccc2)cc1 [Benzylsulfonyl-D-Ser-Lys-(4-amidino-benzylamide), reference compound]
Ki ([2]; comparative inhibitor compositions, 0.1% inhibitor and 99.9% of glycerine 86%, 25° C., pH 8.0, Dixon, read-out: Ki for uPA inhibition): 24 nM
Ki [1, 3]: 360 nM

N=C(N)c1ccc(CNC(=O)C(CCc2ccccc2)NC(=O)C(CO)NS(=O)(=O)Cc2ccccc2)cc1 [benzylsulfonyl-D-Ser-homoPhe-(4-amidino-benzylamide)]
Ki [2]: 28 nM
Ki [1]: 36 nM
Ki for plasmin inhibition compared to 3 other 4-amidino benzylamines ([1]; compared to the Gly, Ala and Lys analogues of WO2009/026949): an order of magnitude better
